≈ marks a conversion by molar mass, not a printed value.
Key:
[1] = target: α-amylase; conditions: ref 39 (Zheng et al.); cited from earlier work
[2] = target: α-glucosidase; conditions: ref 39 (Zheng et al.); cited from earlier work
[3] = system: porcine pancreatic α-amylase and amyloglucosidase (rice starch digestion); test: In vitro digestion of genistein–starch mixed system (RDS, SDS, RS contents); assay type: biochemical, porcine; Aspergillus niger
Experimental: A particular volume of mixed enzyme solution was prepared in which the specific activities of porcine pancreatic α-amylase and amyloglucosidase were 150 U/mL and 15 U/mL, respectively, and kept at 37 °C. […] This mixed system was added to 25 mL of mixed enzyme solution to receive incubation at 37 °C and 160 r/min in a shaking water bath. Aliquots from the reaction solution were removed at 0, 20, and 120 min, followed by being assayed using a glucose assay kit (Megazyme). Below is the calculation equation of the rapidly digestible starch (RDS), slowly digestible starch (SDS), and resistant starch (RS) contents:(1) RDS(%)=(G20−G0)×0.9/TS×100 (2) SDS(%)=(G120−G20)×0.9/TS×100 (3) RS(%)=TS−RDS−SDS/TS×100
In the above equations, G0 represents the content of free glucose within starch; G20 and G120 are the quantities of glucose generated by the mixed enzyme solution after incubation for 20 and 120 min, respectively; TS represents the total starch content in the sample, mg; and 0.9 is the glucose conversion coefficient.

[4] = target: T1, α-Amylase from porcine pancreas (Sus scrofa, UniProt P00690); test: Inhibition rate of α-amylase (glucose assay kit, 510 nm); assay type: biochemical
T1 construct: purchased Sigma-Aldrich (Shanghai, China); host or cells: porcine pancreas
T1 sequence (P00690 16-511): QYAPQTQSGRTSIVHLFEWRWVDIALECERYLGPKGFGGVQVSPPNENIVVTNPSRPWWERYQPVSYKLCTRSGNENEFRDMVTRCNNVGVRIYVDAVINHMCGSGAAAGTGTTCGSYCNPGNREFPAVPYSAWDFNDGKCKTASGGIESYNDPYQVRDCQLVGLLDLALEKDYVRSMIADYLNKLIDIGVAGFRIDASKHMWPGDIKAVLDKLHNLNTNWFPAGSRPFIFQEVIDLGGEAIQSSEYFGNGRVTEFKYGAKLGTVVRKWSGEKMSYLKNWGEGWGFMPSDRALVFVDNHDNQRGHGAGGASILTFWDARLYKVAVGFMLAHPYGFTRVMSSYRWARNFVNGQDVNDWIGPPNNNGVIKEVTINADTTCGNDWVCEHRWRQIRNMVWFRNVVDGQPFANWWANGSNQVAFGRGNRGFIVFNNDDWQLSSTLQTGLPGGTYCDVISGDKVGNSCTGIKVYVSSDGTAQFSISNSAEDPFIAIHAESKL
Experimental: For α-amylase, the method of Qin et al. [22] was used with slight modifications (the enzymatic reaction time was different). […] A 5 mL aliquot of the above solution was taken to undergo 10 min of incubation at 37 °C, following by the addition of 5 mL of starch solution (20 mg/mL) that was prepared and kept at 37 °C. Following 15 min of incubation at 37 °C, the reaction solution was removed, and a glucose assay kit was employed for assaying the glucose produced after starch hydrolysis through measuring the changes in the absorbance at 510 nm. […] IC50 was calculated using SPSS 25.0 (IBM) nonlinear regression fitting. (4) Inhibition ratio (%) = 1−ODsample−ODsample blank/ODenzyme solution−ODbuffer solution×100 where ODsample, ODsample blank, and ODenzyme solution represent the absorbance of the solution containing both the sample and the enzyme, the sample solution, and the enzyme solution, respectively. ODbuffer solution is the absorbance of the buffer solution.

[5] = target: T1, α-Amylase from porcine pancreas; test: Reversibility and enzyme inhibition kinetics, α-amylase (Lineweaver–Burk); assay type: biochemical
Experimental: The protocol of Dong et al. was followed with minor modifications (the substrate concentration was different). […] The assay mixture received 10 min of incubation at 37 °C. The mixture underwent 15 min of incubation after being added with starch solution (5 mL, 20 mg/mL), followed by the determination of the absorbance change. […] The mixture of the above solution with 2 mL of pNPG solution (25.0 mmol/L) underwent 15 min of incubation, followed by the measurement of its absorbance at 405 nm.
The method in the study of Jiang et al. was modified slightly in this study (the concentration of the inhibitor was different). […] Thereafter, the assay mixture added with 5 mL of 10, 20, 40, 50, and 100 mg/mL of starch solution underwent 15 min of incubation at 37 °C. The assay was performed using a glucose assay kit, together with the identification of the absorbance change at 510 nm.
The assay mix was incubated further for 15 min at 37 °C. The experimenters terminated the reaction by adding 6 mL of sodium carbonate solution (0.2 mol/L). The absorbance change of the solution was monitored colorimetrically at 405 nm. […] The equations below were adopted for calculating Km, KIC, and KIN, which, respectively, represented the Michaelis constant, competitive inhibition constant, and non-competitive inhibition constant, in mg/mL [28].
Lineweaver–Burk:(5) 1/V=Km/Vmax⋅1/[S]+1/Vmax

[6] = target: T1, α-Amylase from porcine pancreas; test: Fluorescence quenching, binding and thermodynamic analysis, α-amylase; conditions: for Kd: KD dissociation constant; for Kd / KQ static quenching constant / n binding sites / ΔG free energy change / ΔH enthalpy change / ΔS entropy change / KA apparent quenching rate constant: α-amylase
Experimental: For fluorescence spectroscopic studies, we followed the protocol in the study of Yu et al.. […] Fluorescence quenching parameters were calculated using the following equations:(8) Fa=Fm⋅e^(Aex+Aem)/2 where Fm denotes the measured fluorescence data; Fa represents the adjusted fluorescence data; and Aex and Aem denote the absorbance at the excitation and emission wavelengths, respectively.
Stern–Volmer dynamic impact quenching equation:(9) F0/F=1+KAτ0[Q]
Binding and thermodynamic analyses were used for elucidating the mechanisms of enzyme inhibition, including the inhibition of fluorophores by quenchers. […] (13) lg(F0−F/F)=lgKC+nlg[Q] where F0, F, and [Q] are identical to those in Equation (9). KC is the binding constant (L/mol), and n denotes the average number of binding sites. (14) lnKQ2/KQ1=ΔH/R(1/T1−1/T2) (15) ΔG=−RTlnK=ΔH−TΔS

[7] = addition of genistein (0.4 mg/mL, 10%) vs starch alone
[8] = genistein 0.4 mg/mL (10.0 mg per 100 mg rice starch), 37 °C

SMILES: COc1cc(/C=C/C(=O)O)ccc1O [ferulic acid]
- IC50 α-amylase [1]: 622 µg/mL (≈ 3.2 mM)
- IC50 α-glucosidase [2]: 866 µg/mL (≈ 4.46 mM)

SMILES: O=c1c(-c2ccc(O)cc2)coc2cc(O)cc(O)c12 [genistein, Genistein]
- increase of RS content [3, 7]: 7.18%
- increase of SDS content [3, 7]: 30.34%
- reduction of RDS content in starch [3, 7]: 37.52%
- RDS content of the mixed system [3, 8]: 20.63%
- RS content of the mixed system [3, 8]: 9.14%
- SDS content of the mixed system [3, 8]: 70.23%
- IC50 [4]: 2550 µM
- type of inhibition of α-amylase ([5]; genistein 0, 1, 2 mg/mL): reversible and non-competitive
- Ki ([5]; read-out: KIN (non-competitive inhibition constant), α-amylase (converted)): 50500 µM
- type of fluorescence quenching of α-amylase ([6]; 25, 31, 37 °C): static quenching
- Kd ([6]; 25 °C): 760 µM
- Kd ([6]; 31 °C): 170 µM
- Kd ([6]; 37 °C): 110 µM
- KQ static quenching constant ([6]; 25 °C): 540 L/mol
- n binding sites ([6]; 25 °C): 1.19
- ΔG free energy change ([6]; 25 °C): -3.415 kcal/mol
- ΔH enthalpy change ([6]; 25 °C): -0.11 kcal/mol
- ΔS entropy change ([6]; 25 °C): 50.65 J·mol^−1·K^−1
- KA apparent quenching rate constant ([6]; 31 °C): 5.32e+11 M⁻¹ s⁻¹
- KQ static quenching constant ([6]; 31 °C): 530 L/mol
- n binding sites ([6]; 31 °C): 0.97
- ΔG free energy change ([6]; 31 °C): -3.717 kcal/mol
- ΔH enthalpy change ([6]; 31 °C): -1.44 kcal/mol
- ΔS entropy change ([6]; 31 °C): 31.97 J·mol^−1·K^−1
- KA apparent quenching rate constant ([6]; 37 °C): 4.84e+11 M⁻¹ s⁻¹
- KQ static quenching constant ([6]; 37 °C): 480 L/mol
- n binding sites ([6]; 37 °C): 0.77
- ΔG free energy change ([6]; 37 °C): -3.81 kcal/mol
- ΔH enthalpy change ([6]; 37 °C): -0.504 kcal/mol
- ΔS entropy change ([6]; 37 °C): 44.59 J·mol^−1·K^−1

— article PMC11394712 (Foods, 2024)
